Reference: patent US20200315231A1, “CO-C[…]” (NESTES S,A,, priority 2016, published 2020)

Assay: Water uptake behavior study in powder matrices at 33% Relative Humidity
Format: physicochemical
Conditions: all samples tested (maltodextrin, skimmed milk powder, full cream milk powder, growing up milk powder), co-crystal 7.6% by weight, 22 days, versus equivalent dry-mix CaCl2.2 H2O+sucrose
Method: The water uptake behavior was studied for the co-crystal of Sucrose.CaCl2.4 H2O in four different powder matrices: Maltodextrin (FIG. 5), skimmed milk powder (FIG. 6), full cream milk powder with 26% fat (FIG. 7), and powdered “growing up milk” (Nestlé BEBA3) (FIG. 8). For each matrix, three different calcium containing material were mixed into the powder to simulate calcium fortification. Powders were stored in a desiccator at 33% Relative Humidity over 22 days. The water uptake was measured every 3-4 days by tracking the weight change. The water uptake is shown in FIGS. 5 to 8): powder matrix alone (♦), powder matrix with CaCl2. 2 H2O (2.1% by weight): 13.59 g of matrix+290 mg of CaCl2.2 H2O (●), powder matrix with co-crystalline Sucrose.CaCl2.4 H2O (7.6% by weight): 13.59 g of matrix+1.04 g of co-crystal (▴), and powder matrix with the equivalent dry-mix: 13.59 g of matrix+290 mg of CaCl2.2 H2O+670 mg of sucrose (▪).

## O.O.O.O.OC[C@H]1O[C@@](CO)(O[C@H]2O[C@H](CO)[C@@H](O)[C@H](O)[C@H]2O)[C@@H](O)[C@@H]1O.[Ca+2].[Cl-].[Cl-] [co-crystal, Sucrose.CaCl2.4 H2O]
  water uptake (weight change) compared with the dry mix: lower for the co-crystal than for the dry mix
